The values that follow come from US20100286024A1, “Insulinotropic compounds and uses thereof” (priority 2005, published 2010).

SMILES strings stand for the structures.

The target in data set [1] is DPP-IV (Homo sapiens, UniProt P27487). Description: Dipeptidyl Peptidase IV (DPP-IV) digestion, stability by RP-HPLC (Example 10). Format: in vitro ADME.
Source text: (§1) Their stabilities were monitored by RP-HPLC, noting the disappearance of the intact sequence and appearance of a species missing the N terminal dipeptide or similar fragment.
Data set [2] has as its system DPP-IV. The data set is described as above. Format: in vitro ADME. The conditions noted are these: DPP-IV (isolated peptidase); pH 7.5, 37° C., DPP-IV, 22 hr; new species at 3220 mu, loss of the His-Ala dimer; read-out: share hydrolyzed by DPP-IV within 22 hr.
Source text: as §1
Data set [3] deals with beta TC-6 cell line. Nature of the data set: Insulin release assay (insulin ELISA). Type of data set: cell-based, mouse. As to conditions: for Insulin release: 5 mM glucose, 30 minutes, Beta-TC-6 cells, cells only 1.37-3.67. Here is the method: This was derived from a pancreatic tumor (insulinoma) arising in a transgenic mouse.
Beta-TC-6 cells were purchased from A.T.C.C. (A.T.C.C. number CCL-11506; Manassas, Va., U.S.A.). Beta-TC-6 cells were cultured in Dulbecco's Modified Eagle's medium supplemented with 15% (v/v) heat-inactivated foetal bovine serum, 1% (v/v) glutamine, 0.45% (w/v) glucose and 0.15% (w/v) sodium bicarbonate at 37° C. in a humidified 5% CO2 atmosphere. Beta-TC-6 cells form islands and the monolayer never becomes confluent; cells were passaged at 70% confluence (7 days from seeding) at a subcultivation ratio of 1:4. The monolayer was disrupted from the surface of the culture flask with 0.25% (w/v) Trypsin-0.53 mM EDTA.
Beta-TC-6 cells were cultured in 12 well plates for between 4-8 days prior to use. Cells were cultured in Krebs-Ringer (10 mM Hepes, pH 7.4, 136 mM NaCl, 4.7 mM KCl and 1.25 mM MgSO4) supplemented with 5 mM glucose for 1 hr at 37° C. in a humidified 5% CO2 atmosphere. This medium was removed, cells washed with Krebs-Ringer. Beta-TC-6 cells were then cultured in 1 ml per well of Krebs-Ringer supplemented with 5 mM glucose and 0, 0.12, 0.6, 3 and 15 μM of peptide in duplicate for 30 minutes at 37° C. in a humidified 5% CO2 atmosphere. Medium was removed, diluted 1:5, and insulin concentration determined using an insulin ELISA kit (Mercodia, Uppsala, Sweden) according to the manufacturer's protocol. Beta-TC-6 cells were washed three times with ice-cold PBS and extracted into 0.5 ml lysis buffer (62.5 mM Tris, pH 7.5, and 1%, v/v, SDS) per well. Protein concentration was determined by Lowry assay. […] Only single-sided p values are shown.

Data set [4] in a line: Control study: chemical stability in PBS/triethanolamine without DPP-IV. Format: physicochemical. The conditions noted are these: PBS/triethanolamine solution without DPP-IV, PBS/TEthA, pH 7.5, 37°, no DPP-IV, read-out: percentage of peptide remaining. As for the experimental part:
In the control study, peptides were incubated with PBS/triethanolamine solution in the absence of DPP-IV to measure their chemical stability.

Chain of DPP-IV (Homo sapiens, UniProt P27487) (P27487 whole entry, species assumed): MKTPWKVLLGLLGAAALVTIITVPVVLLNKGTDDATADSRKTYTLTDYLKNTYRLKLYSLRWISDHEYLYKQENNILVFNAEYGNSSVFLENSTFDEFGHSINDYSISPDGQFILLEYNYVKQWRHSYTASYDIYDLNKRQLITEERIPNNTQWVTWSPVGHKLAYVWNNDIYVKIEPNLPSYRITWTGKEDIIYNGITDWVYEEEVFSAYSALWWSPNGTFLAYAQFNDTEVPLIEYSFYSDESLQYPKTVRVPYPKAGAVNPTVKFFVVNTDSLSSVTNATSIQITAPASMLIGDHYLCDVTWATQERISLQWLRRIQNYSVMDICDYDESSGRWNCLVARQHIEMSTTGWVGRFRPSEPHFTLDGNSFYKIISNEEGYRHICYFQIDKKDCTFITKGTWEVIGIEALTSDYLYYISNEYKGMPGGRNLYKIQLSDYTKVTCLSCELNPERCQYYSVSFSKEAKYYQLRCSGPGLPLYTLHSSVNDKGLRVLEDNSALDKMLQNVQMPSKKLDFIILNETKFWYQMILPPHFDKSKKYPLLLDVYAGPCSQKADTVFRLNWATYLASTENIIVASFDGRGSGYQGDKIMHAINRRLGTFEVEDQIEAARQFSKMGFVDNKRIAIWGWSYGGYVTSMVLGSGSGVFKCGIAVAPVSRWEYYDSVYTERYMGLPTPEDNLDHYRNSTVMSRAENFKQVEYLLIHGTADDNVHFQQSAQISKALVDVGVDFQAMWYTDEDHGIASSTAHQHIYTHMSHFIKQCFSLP

Usually fraction remaining stands for the share of the starting amount still present when the sample was taken. On to `CC[C@H](C)[C@H](NC(=O)[C@H](Cc1ccccc1)NC(=O)[C@H](CCC(=O)O)NC(=O)[C@H](CCCCN)NC(=O)[C@H](C)NC(=O)[C@H](C)NC(=O)[C@H](CCC(N)=O)NC(=O)CNC(=O)[C@H](CCC(=O)O)NC(=O)[C@H](CC(C)C)NC(=O)[C@H](Cc1ccc(O)cc1)NC(=O)[C@H](CO)NC(=O)[C@H](CO)NC(=O)[C@@H](NC(=O)[C@H](CC(=O)O)NC(=O)[C@H](CO)NC(=O)[C@@H](NC(=O)[C@H](Cc1ccccc1)NC(=O)[C@@H](NC(=O)CNC(=O)[C@H](CCC(=O)O)NC(=O)CNNC(=O)[C@H](C)NC(=O)[C@@H](N)Cc1c[nH]cn1)[C@@H](C)O)[C@@H](C)O)C(C)C)C(=O)N[C@@H](C)C(=O)N[C@@H](Cc1c[nH]c2ccccc12)C(=O)N[C@@H](CC(C)C)C(=O)N[C@H](C(=O)N[C@@H](CCCCN)C(=O)NCC(=O)N[C@@H](CCCNC(=N)N)C(=O)NCC(=O)O)C(C)C` [SP007, L-His-L-Ala-NH—NH—CH2—C(O)-Glu9-37], for which the share remaining at 22 h is less than 5% in data set [1] (DPP-IV (isolated peptidase), PBS/TEthA, pH 7.5, 37°, DPP-IV, 22 hr, read-out: percentage of analogue remaining) and 95% in data set [4] (22 hr). Besides, the fraction remaining at 47 h in data set [1] (DPP-IV (isolated peptidase), PBS/TEthA, pH 7.5, 37°, DPP-IV, 47 hr, read-out: percentage of analogue remaining) is less than 5%; in data set [4] (47 hr) it was 95%. In data set [1] (pH 7.5, 37° C., up to 47 hr), the “susceptibility to DPP-IV hydrolysis” value is on record as “susceptible to DPP-IV hydrolysis”. In data set [2], the metabolised at 22 h is more than 90%. The Insulin release in data set [3] (3 μM peptide) worked out at 4.51 ng/min/mg; in data set [3] (15 μM peptide), 8.08 ng/min/mg. Besides, the “Activity of 3 μM of each peptide as percentage of insulin release by cells only” value in data set [3] (3 μM peptide, cells alone=100%) was 113 ± 65%. Moreover, the “Activity of 15 μM of each peptide as percentage of insulin release by cells only” value in data set [3] (15 μM peptide, cells alone=100%) is reported as 235 ± 91%.
